In brackets after ≈: the same amount, converted by molar mass. Activity calls are given as the source filed them. The calls are words filed in the database; no cut-off is given here. Where a SMILES comes first, the peptide text is derived from it.
Legend:
Staphylococcus aureus [1] = test: Bactericidal activity against Staphylococcus aureus ATCC25923 assessed as killing rate at 0.5 X MIC measured upto 180 min by bacterial killing kinetic assay; type: functional, organism-based
Escherichia coli [2] = test: Bactericidal activity against Escherichia coli ATCC25722 assessed as killing rate at 0.5 X MIC measured upto 180 min by bacterial killing kinetic assay; type: functional, organism-based
Vibrio parahaemolyticus [3] = test: Antimicrobial activity against Vibrio parahaemolyticus ATCC17802 by two fold broth microdilution method; type: functional
Bacillus cereus = test: Antimicrobial activity against clinical isolates Bacillus cereus by two fold broth microdilution method; type: functional
Vibrio parahaemolyticus [4] = test: Bactericidal activity against Vibrio parahaemolyticus ATCC17802 assessed as killing rate at 0.5 X MIC by measuring time limit of detection by bacterial killing kinetic assay; type: functional
Staphylococcus aureus [5] = test: Antimicrobial activity against Staphylococcus aureus ATCC25923 by two fold broth microdilution method; type: functional; details: read-out: MIC
Escherichia coli [6] = test: Antimicrobial activity against Escherichia coli ATCC27622 by two fold broth microdilution method; type: functional
Staphylococcus aureus [7] = test: Antimicrobial activity against clinical isolates Staphylococcus aureus by two fold broth microdilution method; type: functional
Cell membrane [8] = test: Induction of cytoplasmic membrane permeabilization in Vibrio parahaemolyticus […] assessed as calcein transmembrane diffusion into interior of gaint unilamellar vesicles by measuring time to equilibrium between inside and outside of vesicles at 2 ug/mL by confocal microscopy based calcein-AM leakage assay; type: cell membranes; details: dose 2.0 µg/ml
Escherichia coli [9] = test: In vivo antibacterial activity against Escherichia coli ATCC25722 infected in Balb/c mouse model assessed as reduction in bacterial CFU count on skin at 20 ug/ml applied 4 hrs after infection and measured after 120 mins; type: functional, organism-based; details: dose 20.0 µg/ml
Lipopolysaccharide (LPS) [10] = test: Binding affinity to Escherichia coli LPS assessed as LPS neutralizing activity measured after 60 mins by LPS neutralization assay
Cell membrane [11] = test: Binding affinity to Vibrio parahaemolyticus ATCC17802 cell membrane assessed as increase in fluorescence intensity measured after 30 mins by flow cytometry analysis (reference value: 1.85%); type: cell membranes
Vibrio parahaemolyticus [12] = test: Induction of bacterial resistance in Vibrio parahaemolyticus ATCC17802 assessed as fold increase in MIC treated over 30 serial passages measured after 24 hrs; type: functional
Cell membrane [13] = test: Induction of inner membrane permeabilization in Vibrio parahaemolyticus ATCC17802 at 5 times MIC measured upto 200 mins by propidium iodide penetration assay; type: cell membranes
HaCaT = test: Cytotoxicity against human HaCaT cells incubated for 48 hrs by MTT assay; type: toxicity, cell-based; details: dose < 250 µg/ml
Vibrio parahaemolyticus [14] = test: Induction of morphological changes in Vibrio parahaemolyticus ATCC17802 assessed as massive cell collapse incubated at 5 times MIC and measured after 180 mins by scanning electron microscopy based analysis; type: functional, organism-based
Escherichia coli [15] = test: In vivo antibacterial activity against Escherichia coli ATCC25722 infected in Balb/c mouse model assessed as reduction in bacterial CFU count on skin at 20 ug/ml incubated for 6 hrs post infection and measured after 2 hrs post compound treatment; type: functional, organism-based; details: dose 20.0 µg/ml, time 8.0 hrs
Cell membrane [16] = test: Induction of outer membrane permeabilization in Escherichia coli ATCC25722 assessed as increase fluorescence intensity measured upto 15 mins by NPN uptake assay; type: cell membranes
Lipopolysaccharide (LPS) [17] = test: Binding affinity to Escherichia coli LPS assessed as dissociation constant measured upto 600 sec by surface plasmon resonance imaging method
[18] = Effect on morphological changes in POPC/POPG (3:1) bilayer membrane assessed as formation of bulge aggregates by measuring the height of bulges at 2 ug/ml incubated for 40 mins under neutral pH and low ionic strength by atomic force microscopic analysis; type: cell membranes; details: Cell membrane, dose 2.0 µg/ml
Cell membrane [19] = test: Binding affinity to Vibrio parahaemolyticus ATCC17802 cell membrane assessed as increase in fluorescence intensity measured after 120 mins by flow cytometry analysis (reference value: 1.88%); type: cell membranes
Cell membrane [20] = test: Induction of outer membrane permeabilization in Escherichia coli ATCC25722 assessed as increase fluorescence intensity at 0.5 to 2 times of MIC by NPN uptake assay; type: cell membranes; details: time <= 15.0 min, TDE = time-dependent effect
Cell membrane [21] = test: Induction of inner membrane permeabilization in Vibrio parahaemolyticus ATCC17802 assessed as increase in PI fluorescence intensity at 5 times MIC by propidium iodide penetration assay; type: cell membranes; details: time <= 200.0 min
Cell membrane [22] = test: Induction of outer membrane permeabilization in Vibrio parahaemolyticus ATCC17802 assessed as increase fluorescence intensity at 0.5 to 2 times of MIC by NPN uptake assay; type: cell membranes; details: time <= 15.0 min, TDE = time-dependent effect
Vibrio parahaemolyticus [23] = test: Induction of morphological changes in Vibrio parahaemolyticus ATCC17802 assessed as cellular inclusion leakage incubated at 5 times MIC and measured after 180 mins by scanning electron microscopy based analysis; type: functional, organism-based
Vibrio parahaemolyticus [24] = test: Induction of morphological changes in Vibrio parahaemolyticus ATCC17802 assessed as surface fibrosis incubated at 5 times MIC and measured after 180 mins by scanning electron microscopy based analysis; type: functional, organism-based
Peritoneal macrophage = test: Cytotoxicity against mouse peritoneal macrophage cells incubated for 48 hrs by MTT assay; type: toxicity, cell-based; details: dose < 250 µg/ml
Cell membrane [25] = test: Induction of outer membrane permeabilization in Vibrio parahaemolyticus ATCC17802 assessed as increase fluorescence intensity measured upto 15 mins by NPN uptake assay; type: cell membranes
Lipopolysaccharide (LPS) [26] = test: Binding affinity to Escherichia coli LPS assessed as LPS neutralizing activity measured after 5 mins by LPS neutralization assay
[27] = Hemolytic activity in human erythrocytes measured after 30 mins; type: toxicity, cell-based; details: erythrocyte, 0.5 h

Question: Which Activity (Staphylococcus aureus [1]) does the source give for CC[C@H](C)[C@H](NC(=O)[C@H](CCCCN)NC(=O)[C@H](CCCCN)NC(=O)[C@H](C)NC(=O)[C@H](CCCCN)NC(=O)[C@H](CCCCN)NC(=O)[C@H](CC(C)C)NC(=O)[C@@H](NC(=O)[C@H](CCCCN)NC(=O)[C@H](CCCCN)NC(=O)[C@H](Cc1c[nH]c2ccccc12)NC(=O)[C@H](Cc1ccccc1)NC(=O)[C@H](CCCCN)NC(=O)[C@H](CCCNC(=N)N)NC(=O)[C@H](CCCNC(=N)N)NC(=O)[C@@H](N)CCCCN)C(C)C)C(=O)N[C@@H](C)C(=O)O (H-KRRKFWKKVLKKAKKIA-OH) here?
Answer: Active

Question: What about the Activity (Escherichia coli [2]) of the same compound?
Answer: Active

Question: What about the MIC (Vibrio parahaemolyticus [3]) of the same compound?
Answer: 4.69 mg/L (≈ 2.17 µM)

Question: And the MIC (Bacillus cereus)?
Answer: 4.69 mg/L (≈ 2.17 µM)

Question: And the Time (Vibrio parahaemolyticus [4])?
Answer: >180 min

Question: What about the MIC (Staphylococcus aureus [5]) of the same compound?
Answer: 2.34 mg/L (≈ 1.08 µM)

Question: And the MIC (Escherichia coli [6])?
Answer: 9.38 mg/L (≈ 4.35 µM)

Question: And the MIC (Staphylococcus aureus [7])?
Answer: 18.8 mg/L (≈ 8.69 µM)

Question: For CC[C@H](C)[C@H](NC(=O)[C@H](CCCCN)NC(=O)[C@H](CCCNC(=N)N)NC(=O)[C@H](CC(C)C)NC(=O)[C@H](CC(C)C)NC(=O)[C@H](CCCCN)NC(=O)[C@H](CCCCN)NC(=O)[C@H](Cc1ccccc1)NC(=O)[C@H](CC(C)C)NC(=O)CNC(=O)[C@@H](N)CCCNC(=N)N)C(=O)N[C@@H](CCCCN)C(=O)N[C@@H](CCCCN)C(=O)NCC(=O)N[C@@H](Cc1ccccc1)C(=O)N[C@@H](CCCCN)C(=O)N[C@@H](CCCCN)C(=O)O (H-RGLFKKLLRKIKKGFKK-OH), which TIME (Cell membrane [8]) is on record?
Answer: 1 h

Question: And the Activity (Escherichia coli [9])?
Answer: inactive

Question: What about the Activity (Lipopolysaccharide (LPS) [10]) of the same compound?
Answer: Active

Question: What about the Activity (Cell membrane [11]) of the same compound?
Answer: 20.6%

Question: What about the “fold change (FC)” value (Vibrio parahaemolyticus [12]) of the same compound?
Answer: 16

Question: And the Activity (Cell membrane [13])?
Answer: Active

Question: What about the Activity (HaCaT) of the same compound?
Answer: Dose-Dependent Effect

Question: And the MIC (Vibrio parahaemolyticus [3])?
Answer: 4.69 mg/L (≈ 2.25 µM)

Question: What about the MIC (Bacillus cereus) of the same compound?
Answer: 9.38 mg/L (≈ 4.49 µM)

Question: What about the Activity (Vibrio parahaemolyticus [14]) of the same compound?
Answer: Active

Question: And the Activity (Escherichia coli [15])?
Answer: Active

Question: And the Activity (Cell membrane [16])?
Answer: Dose-Dependent Effect

Question: And the Kd (Lipopolysaccharide (LPS) [17])?
Answer: 23.5 µM

Question: What about the Time (Vibrio parahaemolyticus [4]) of the same compound?
Answer: 120 min

Question: What about the MIC (Staphylococcus aureus [5]) of the same compound?
Answer: 2.34 mg/L (≈ 1.12 µM)

Question: What about the Activity [18] of the same compound?
Answer: 1 nm

Question: And the Activity (Cell membrane [19])?
Answer: 99.5%

Question: And the Activity (Cell membrane [20])?
Answer: Tde

Question: And the Activity (Cell membrane [21])?
Answer: Active

Question: And the MIC (Escherichia coli [6])?
Answer: 4.69 mg/L (≈ 2.25 µM)

Question: And the Activity (Cell membrane [22])?
Answer: Tde

Question: And the MIC (Staphylococcus aureus [7])?
Answer: 18.8 mg/L (≈ 8.98 µM)

Question: And the Activity (Vibrio parahaemolyticus [23])?
Answer: Active

Question: What about the Activity (Vibrio parahaemolyticus [24]) of the same compound?
Answer: Active

Question: And the Activity (Peritoneal macrophage)?
Answer: Dose-Dependent Effect

Question: What about the Activity (Cell membrane [25]) of the same compound?
Answer: Dose-Dependent Effect

Question: And the Activity (Lipopolysaccharide (LPS) [26])?
Answer: inactive

Question: And the Activity [27]?
Answer: Toxic

Question: Which results are given for CC[C@H](C)[C@H](NC(=O)[C@H](CCCCN)NC(=O)[C@H](CC(C)C)NC(=O)[C@H](C)NC(=O)CNC(=O)[C@H](CC(N)=O)NC(=O)[C@H](CC(C)C)NC(=O)[C@@H](NC(=O)[C@H](CCCCN)NC(=O)[C@H](CCCCN)NC(=O)[C@H](Cc1c[nH]c2ccccc12)NC(=O)[C@H](Cc1ccccc1)NC(=O)[C@H](CCCCN)NC(=O)[C@H](CCCNC(=N)N)NC(=O)[C@H](CCCNC(=N)N)NC(=O)[C@@H](N)[C@@H](C)O)C(C)C)C(=O)N[C@@H](C)C(=O)O (H-TRRKFWKKVLNGALKIA-OH)?
Answer: Activity (Staphylococcus aureus [1]): Active; Activity (Escherichia coli [2]): Active; MIC (Vibrio parahaemolyticus [3]): 4.69 mg/L (≈ 2.31 µM); MIC (Bacillus cereus): 9.38 mg/L (≈ 4.62 µM); Time (Vibrio parahaemolyticus [4]): 30 min; MIC (Staphylococcus aureus [5]): 4.69 mg/L (≈ 2.31 µM); MIC (Escherichia coli [6]): 9.38 mg/L (≈ 4.62 µM); MIC (Staphylococcus aureus [7]): 18.8 mg/L (≈ 9.24 µM)

From ChEMBL document CHEMBL5236579, “Hydrophobicity Determines the Bacterial Killing Rate of α-Helical Antimicrobial Peptides and Influences the Bacterial Resistance Development” (J Med Chem, 2022)
